Laboratory results as given in patent publication US20020035738A1, “Plant protection method” (priority 1996, published 2002).

How the values were obtained:
[1] = test system: pBg12-GUS-tNOS (β-1.3-glucanase PR-2 type gene promoter); assay: β-glucuronidase activity in pBg12-GUS-tNOS Arabidopsis plants upon chemical treatment; assay type: in vivo
Alterniaria alternata = conditions: cited from earlier work
[2] = test system: pPDF1.2-GUS-tNOS reporter gene; assay: β-glucuronidase activity in four-week-old pPDF1.2-GUS-tNOS Arabidopsis plants upon chemical treatment; assay type: in vivo
Botrvtis cinerea = conditions: cited from earlier work
[3] = test system: plant defensin gene expression (PDF1.2); assay: Induction of plant defensins in Arabidopsis leaves upon chemical treatments (RNA gel blot, ELISA); assay type: in vivo
[4] = test system: pPDF1.2-GUS-tNOS transgene; assay: β-glucuronidase activity in seedlings of pPDF1.2-GUS-tNOS Arabidopsis lines germinated on jasmonic acid; assay type: in vivo, Arabidopsis thaliana ecotype C24; conditions: 10 μM jasmonic acid
From the text: The β-glucuronidase activity was normalized to the total protein content in each sample, as determined by the method of Bradford (1976) using bovine serum albumin as a […].

tobacco PR-1 gene = assay: RNA gel blot analysis of tobacco PR-1 gene activation; assay type: in vivo; conditions: tobacco plants treated in the same way; not shown
[5] = test system: pPDF1.2-GUS-tNOS reporter gene; assay: β-glucuronidase activity in pPDF1.2-GUS-tNOS tobacco plants upon chemical treatment; assay type: in vivo, tobacco (cv. Xanthi-nc); conditions: 8-week-old tobacco, treated leaves 48 h after treatment; SA S mM, MeJA 50 μM, paraquat 25 μgM
A. brassicicola = assay type: cell-based, Alternaria brassicicola; conditions: FIG. 3D
[6] = treated leaves, 48 h, JA 500 μM, MeJA 50 μM, SA 5 mM, INA 1 mg/ml, BTH 300 μM, paraquat 25 μM, ethylene 25 ppm
[7] = treated leaves, 48 hours, JA 500 μM, MeJA 50 μM, SA 5 mM, INA 1 mg/ml, BTH 300 μM, paraquat 25 μM, ethylene 25 ppm
[8] = […], SA 5 mM, INA 1 mg/mL, paraquat 25 μM, rose bengal 20 mM, methyl jasmonate 45 μM in 0.1% ethanol, ethylene 20 ppm

CSC(=O)c1cccc2nnsc12 [BTH, 1,2,3-benzothiadiazole-7-carbothioic acid S-methylester]
β-glucuronidase activity in pBg12-GUS-tNOS plants [1, 6]: markedly increased | protection of tobacco plants against infection by Alternaria alternata (Alterniaria alternata): failed to protect | induction of the pPDF1.2-GUS-tNOS reporter gene (β-glucuronidase activity) [2, 7]: without effect | protection of tobacco plants against infection by Botrytis cinerea (Botrvtis cinerea): failed to protect

O=C(O)c1cc(Cl)nc(Cl)c1 [INA, 2,6-dichloroisonicotinic acid]
β-glucuronidase activity in pBg12-GUS-tNOS plants [1, 6]: markedly increased | plant defensin gene expression (RNA blot analysis, ELISA) [3, 8]: no induction | induction of the pPDF1.2-GUS-tNOS reporter gene (β-glucuronidase activity) [2, 7]: without effect

C=C [ethylene]
β-glucuronidase activity in pBg12-GUS-tNOS plants ([1]; in vivo): neither JA, MeJA, ethylene nor paraquat had any effect | PDF1.2 accumulation ([3]; in vivo): no induced PDF1.2 accumulation | plant defensin gene expression (RNA blot analysis, ELISA) ([3]; in vivo): significantly increased | induction of the pPDF1.2-GUS-tNOS reporter gene (β-glucuronidase activity) ([2]; in vivo): without effect | β-glucuronidase activity, single and combined treatments (synergy) ([2]; in vivo): did not cause increased

CC/C=C\C[C@H]1C(=O)CC[C@@H]1CC(=O)O [jasmonic acid]
increase of β-glucuronidase activity in jasmonate treated versus untreated seedlings ([4]; all six lines tested): 9 to 25 fold | β-glucuronidase activity, JA-treated ([4]; transgenic line 3, 10-day-old seedlings): 2895 pmoles 4-methylumbelliferone r | β-glucuronidase activity, JA-treated ([4]; transgenic line 4, 10-day-old seedlings): 978 pmoles 4-methylumbelliferone r | β-glucuronidase activity, JA-treated ([4]; transgenic line 5, 10-day-old seedlings): 2676 pmoles 4-methylumbelliferone r | β-glucuronidase activity, JA-treated ([4]; transgenic line 6, 10-day-old seedlings): 2166 pmoles 4-methylumbelliferone r | β-glucuronidase activity, JA-treated ([4]; transgenic line 7, 10-day-old seedlings): 203 pmoles 4-methylumbelliferone r | β-glucuronidase activity, JA-treated ([4]; transgenic line 19, 10-day-old seedlings): 202 pmoles 4-methylumbelliferone r | β-glucuronidase activity in pBg12-GUS-tNOS plants [1, 6]: neither JA, MeJA, ethylene nor paraquat had any effect | induction of the pPDF1.2-GUS-tNOS reporter gene (β-glucuronidase activity) [2, 7]: induced

CC/C=C\CC1C(=O)CCC1CC(=O)OC (stereo not drawn) [methyl jasmonate]
β-glucuronidase activity in pBg12-GUS-tNOS plants [1, 6]: neither JA, MeJA, ethylene nor paraquat had any effect | plant defensin gene expression (RNA blot analysis, ELISA) [3, 8]: significantly increased | PDF1.2 accumulation ([3]; sterile plants grown on an agar medium, ethylene alone 25 ppm, results not shown): still induced PDF1.2 accumulation | β-glucuronidase activity, single and combined treatments (synergy) ([2]; methyl jasmonate 0.5 μM, ethylene 25 ppm, ethephon 333 μM, FIG. 19): did not cause increased | induction of the pPDF1.2-GUS-tNOS reporter gene (β-glucuronidase activity) [2, 7]: induced

C[n+]1ccc(-c2cc[n+](C)cc2)cc1 [paraquat]
β-glucuronidase activity in pBg12-GUS-tNOS plants [1, 6]: neither JA, MeJA, ethylene nor paraquat had any effect | plant defensin gene expression (RNA blot analysis, ELISA) [3, 8]: strongly induced | induction of the pPDF1.2-GUS-tNOS reporter gene (β-glucuronidase activity) [2, 7]: induced

O=C([O-])c1c(Cl)c(Cl)c(Cl)c(Cl)c1-c1c2cc(I)c(=O)c(I)c-2oc2c(I)c([O-])c(I)cc12.[Na+].[Na+] [rose bengal]
plant defensin gene expression (RNA blot analysis, ELISA) [3, 8]: strongly induced

O=C(O)c1ccccc1O [salicylic acid]
β-glucuronidase activity in pBg12-GUS-tNOS plants [1, 6]: markedly increased | activation of the tobacco PR-1 gene (RNA gel blot) (tobacco PR-1 gene): induced only by salicylic acid | plant defensin gene expression (RNA blot analysis, ELISA) [3, 8]: no induction | induction of the pPDF1.2-GUS-tNOS reporter gene (β-glucuronidase activity) [2, 7]: without effect | increase in β-glucuronidase activity [5]: 2 fold

Rs-AFP1: a known radish plant defensin (QKLCERPSGTWSGVCGNNNACKNQCINLEKARHGSCNYVFPAHKCICYFPC; UniProt P69241 30-80, looked up)
character of the growth inhibition (hyphal morphology) (A. brassicicola): hyphal hyperbranching and tip swelling
